Experimental findings from publication PMC11279551, “Pharmacokinetics and Enterohepatic Circulation of 2-(Quinoline-8-carboxamido)benzoic Acid (2-QBA) in Mice” (Pharmaceutics, 2024) are described below.

Molecules are shown by their SMILES. Where two headings read alike, the source gives them in different places.

A word on the AUC(0-inf): it is the area under the concentration-time curve extrapolated to infinity. By MRT is commonly meant a mean duration of stay, worked out from the concentration-time curve. As a reminder, the clearance is the volume of plasma or blood freed of the substance per unit of time. A high value points to efficient removal. For orientation: half-life means the time in which the quantity being followed falls by half. A high value points to slow loss.

Data set [1] in a line: Pharmacokinetics after IV administration in mice. Conditions: plasma; for AUC(0-inf) / MRT / clearance / half-life / AUC(0-t) / Vd: male, ICR, mouse; for AUC(0-t): read-out: AUC24h; for Vd: read-out: Vdss. In kind it is in vivo. Here is the method:
Male ICR mice (7 weeks old, […]; Samtako, Osan, Korea) were acclimated to the animal facility at Kyungpook National University for one week with free access to animal chow and water. In the per oral administration (PO) groups, the mice were fasted for 14–16 h prior to the administration of 2-QBA.
For intravenous (IV) administration, 2-QBA (0.5 mg/kg in 3 mL of saline containing 10% DMSO) was injected via the tail vein for eight mice that were randomly divided into two groups for sparse sampling. Blood samples were collected via the jugular vein at 0.083, 0.5, 2, and 8 h from 4 mice and at 0.25, 1, 4, and 24 h from another 4 mice. Eight mice were administered 1 mg/kg of 2-QBA using the same protocol described above.
After the PO administration of 2-QBA (2 mg/kg in 5 mL of saline containing 10% DMSO) using an oral gavage for 10 mice, blood samples were collected at 0.25, 0.75, 2, and 8 h from 5 mice and at 0.5, 1, 4, and 24 h from another 5 mice. Ten mice in each group were administered 5 mg/kg or 15 mg/kg of 2-QBA using an oral gavage and blood was drawn using the same protocol described above. All blood samples were centrifuged at 13,000× g for 1 min and the supernatant plasma (30 μL) was stored at −80 °C until the analysis of the 2-QBA. For the analysis of 2-QBA in the plasma samples, 120 μL of IS solution (berberine 1 ng/mL in acetonitrile) was added to plasma samples (30 μL). The mixture was vigorously vortexed for 5 min and then centrifuged at 13,000× g for 5 min. The supernatant was transferred to autosampler vials. Subsequently, a 3 μL aliquot was injected into the LC-MS/MS system.
WinNonlin 5.1 software (Pharsight Co., Mountain View, CA, USA) was used to calculate the pharmacokinetic parameters. AUClast and AUCinf indicate the areas under the plasma concentration curve from 0 h to the last sample and from 0 h to infinity, respectively; these were estimated using the linear trapezoidal method. T1/2 is the elimination half-life, which is estimated from the elimination coefficient (k) (i.e., 0.693/k), and MRT is the mean residence time. CL is the total clearance, which is calculated by dividing the dose by AUCinf. Vdss is the volume of the distribution at a steady state, calculated from MRTxCL. CLrenal and CLfeces are calculated by dividing the amount excreted in urine and feces by the AUCinf, respectively. CLmetabolism is calculated by subtracting CLrenal and CLfeces from CL. Cmax and Tmax are the maximum plasma concentration and time to reach Cmax, respectively. BA is calculated by dividing the dose-normalized AUCinf for PO administration (AUCinf/PO dose) by the dose-normalized AUCinf for IV administration (AUCinf/IV dose). All data are expressed as the mean ± standard deviation (SD).

Data set [2] in a line: Urinary and fecal excretion of 2-QBA and 2-QBA-Glu with vehicle or AC treatment (β-glucuronidase treatment). The data set is classed as in vivo. Conditions: mice; for urinary excretion rate: PO 2 mg/kg. Here is the method:
In total, […] were administered 2-QBA (1 mg/kg/3 mL) via the tail vein. Two hours after the 2-QBA dosing, AC (0.8 g/kg/5 mL in distilled water) or a vehicle (5 mL/kg distilled water) was administrated via oral gavage. Each group included ten mice who were randomly divided into two groups for sparse sampling. Blood collection was performed at 0.083, 0.5, 2, and 8 h from 5 mice and at 0.25, 1, 4, and 24 h from another 5 mice, as described previously. Four mice treated with either AC (0.8 g/kg) or the vehicle 2 h after the 2-QBA IV dosing (1 mg/kg) were returned to a metabolic cage to collect the urine and feces samples. The urine and feces samples were collected for 72 h.
Next, 2-QBA was administered PO (2 mg/kg/5 mL) with or without AC (0.8 g/kg in 3 mL of DW), which was administered via oral gavage 2 h after the 2-QBA dosing. Each group included eight mice who were randomly divided into two groups for sparse sampling. Blood collection was performed at 0.25, 0.75, 2, and 8 h from 4 mice and at 0.5, 1, 4, and 24 h from another 4 mice, as described previously. Four mice treated with either AC (0.8 g/kg) or vehicle 2 h after the 2-QBA PO dosing (2 mg/kg) were returned to a metabolic cage to collect the urine and feces samples. The urine and feces samples were collected for 72 h.
Aliquots of plasma samples (30 μL) were added to 120 μL of IS solution. The mixture was vigorously vortexed for 5 min and then centrifuged at 13,000× g for 5 min. The supernatant was transferred to autosampler vials. Subsequently, a 3 μL aliquot was injected into the LC-MS/MS system. Aliquots (30 μL) of urine and 10% feces homogenate samples were added to 60 μL of 150 mM sodium acetate buffer (pH 5.0) in the presence or absence of β-glucuronidase (900 unit) at 37 °C for 2 h. […]
Then, we quantified the 2-QBA and 2-QBA-Glu from the urine and fecal samples obtained from the mice after IV or PO administration of 2-QBA. In addition, the amount of 2-QBA-Glu was calculated by subtracting the control 2-QBA from the total 2-QBA with β-glucuronidase treatment. […]

Data set [3] can be described thus: Intestinal permeability in Ussing chamber. In kind it is in vitro ADME, mice. Conditions: upper and lower ileum. The protocol: The small intestines were isolated from fasted mice under isoflurane anesthesia (1–3% with oxygen gas flow) and dissected into three parts, the jejunum, upper ileum, and lower ileum. […] The intestinal permeability of 2-QBA was assessed by adding 0.5 mL of HBSS containing 20 μM of 2-QBA on the donor side and 0.5 mL of fresh HBSS on the receiver side. Then, a 100 μL aliquot was withdrawn from the receiver side every 30 min for 2 h and an equal volume of pre-warmed fresh HBSS was added to replenish the lost volume. To analyze the 2-QBA, 100 μL aliquots were mixed with 4 volumes of IS solution (1 ng/mL berberine in acetonitrile). The mixture was vigorously vortexed for 5 min and then centrifuged at 13,000× g for 5 min. The supernatant was transferred to autosampler vials. Subsequently, a 3 μL aliquot was injected into the LC-MS/MS system.

`O=C(O)c1ccccc1NC(=O)c1cccc2cccnc12` [2-QBA, 2-(quinoline-8-carboxamido)benzoic acid]: in data set [1] (IV 0.5 mg/kg), the AUC24h/dose is 824.7 ± 64.1 ng·h/mL/mg/kg, the AUCinf/dose stood at 835.6 ± 64.6 ng·h/mL/mg/kg, the area under the curve AUC(0-inf) came out at 418 ± 32.3 ng·h/mL and the MRT was determined as 3.88 ± 1.58 h. Moreover, in data set [1] (IV 0.5 mg/kg), the clearance was 20 ± 1.53 mL/min/kg, the half-life is 277 ± 131 min, the AUC(0-t) is 412 ± 32.1 ng·h/mL and the Vd worked out at 4.73 ± 2.15 L/kg. In data set [1] (IV 1.0 mg/kg), this compound displayed an AUC24h/dose of 996.7 ± 146.6 ng·h/mL/mg/kg, an AUCinf/dose of 1044 ± 174.9 ng·h/mL/mg/kg, an AUC(0-inf) of 1040 ± 175 ng·h/mL and an MRT of 3.03 ± 1.11 h. For the same compound, in data set [1] (IV 1.0 mg/kg), the clearance worked out at 16.3 ± 2.81 mL/min/kg, the half-life was 316 ± 78.6 min, the AUC(0-t) was determined as 997 ± 147 ng·h/mL and the Vd turned out to be 2.88 ± 0.72 L/kg. In addition, the dose excreted in data set [2] (ICR, mouse, faeces, 1 mg/kg, IV injection of 2-QBA, read-out: fecal recovery rate) was less than 5%. For the same compound, the urinary excretion rate in data set [2] (with AC (0.8 g/kg)) is 17.5 % of the administered PO dose. Besides, in data set [2] (without AC), the urinary excretion rate was 27.7 % of the administered PO dose. In addition, the “absorptive permeability class compared with marker compounds” value in data set [3] (jejunum) was “moderate to high”. In data set [3] (mouse, 20 μM donor, HBSS pH 7.4, range over jejunum, read-out: absorptive permeability), the Papp A→B at 2 h, 20 μM is 4.46 to 10 ×10⁻⁶ cm/s.
